Measurements from patent US8846698B2, “Pyrrolo[2,3-d]pyrimidine tropomysin-related kinase inhibitors” (Pfizer Limited, priority 2011, dated 2014).
pIC50: −log10 of the molar value.

Target: TRKA (Homo sapiens (Human), UniProt P04629)
Assay: Isolated TRK enzyme assay (HTRF KinEASE-TK), TRKA
Assay type: biochemical
Details: read-out: Trka enzyme (IC50)

Chain of TRKA (P04629 441-796): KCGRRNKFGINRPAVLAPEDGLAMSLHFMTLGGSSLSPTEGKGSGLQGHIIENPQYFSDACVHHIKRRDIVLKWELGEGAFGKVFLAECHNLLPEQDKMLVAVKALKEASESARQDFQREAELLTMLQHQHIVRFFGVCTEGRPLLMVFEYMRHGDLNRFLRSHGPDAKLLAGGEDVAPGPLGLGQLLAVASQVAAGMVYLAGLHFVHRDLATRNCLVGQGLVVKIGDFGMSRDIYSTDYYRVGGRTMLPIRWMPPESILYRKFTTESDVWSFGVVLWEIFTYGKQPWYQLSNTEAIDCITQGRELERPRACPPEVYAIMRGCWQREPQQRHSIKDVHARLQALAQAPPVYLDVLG

Row | SMILES | pIC50
1 | CC(C)n1cc(C(=O)c2cncc(NC(=O)Cc3cn4cc(Cl)sc4n3)c2)c2cncnc21 [Example 371, 2-(2-Chloro-imidazo[2,1-b]thiazol-6-yl)-N-[5-(7-isopropyl-7H-pyrrolo[2,3-d]pyrimidine-5-carbonyl)-pyridin-3-yl]-acetamide] | 7.01
2 | CC(C)n1cc(C(=O)c2cncc(NC(=O)Cn3ccnc3)c2)c2cncnc21 [Example 372, 2-Imidazol-1-yl-N-[5-(7-isopropyl-7H-pyrrolo[2,3-d]pyrimidine-5-carbonyl)-pyridin-3-yl]-acetamide] | 5.01
3 | Cc1csc2nc(CC(=O)Nc3cncc(C(=O)c4cn(C(C)C)c5ncncc45)c3)cn12 [Example 373, N-[5-(7-Isopropyl-7H-pyrrolo[2,3-d]pyrimidine-5-carbonyl)-pyridin-3-yl]-2-(3-methyl-imidazo[2,1-b]thiazol-6-yl)-acetamide] | 6.09
4 | CC(C)n1cc(C(=O)c2cncc(NC(=O)Cc3ccn(-c4ccc(O)cc4)c3)c2)c2cncnc21 [Example 374, 2-[1-(4-Hydroxy-phenyl)-1H-pyrrol-3-yl]-N-[5-(7-isopropyl-7H-pyrrolo[2,3-d]pyrimidine-5-carbonyl)-pyridin-3-yl]-acetamide] | 6.65
5 | CC(C)n1cc(C(=O)c2cncc(NC(=O)Cc3cnc4ncnn4c3)c2)c2cncnc21 [Example 375, N-[5-(7-Isopropyl-7H-pyrrolo[2,3-d]pyrimidine-5-carbonyl)-pyridin-3-yl]-2-[1,2,4]triazolo[1,5-a]pyrimidin-6-yl-acetamide] | 5.01
6 | CC(C)n1cc(C(=O)c2cncc(NC(=O)Cc3cnccn3)c2)c2cncnc21 [Example 376, N-[5-(7-Isopropyl-7H-pyrrolo[2,3-d]pyrimidine-5-carbonyl)-pyridin-3-yl]-2-pyrazin-2-yl-acetamide] | 5.29
7 | CC(C)n1cc(C(=O)c2cncc(NC(=O)Cn3cc(-c4cccc(O)c4)nn3)c2)c2cncnc21 [Example 377, 2-[4-(3-Hydroxy-phenyl)-1,2,3-triazol-1-yl]-N-[5-(7-isopropyl-7H-pyrrolo[2,3-d]pyrimidine-5-carbonyl)-pyridin-3-yl]-acetamide] | 5.58
8 | CC(C)n1cc(C(=O)c2cncc(NC(=O)Cn3nnnc3-c3ccccc3)c2)c2cncnc21 [Example 378, N-[5-(7-Isopropyl-7H-pyrrolo[2,3-d]pyrimidine-5-carbonyl)-pyridin-3-yl]-2-(5-phenyl-tetrazol-1-yl)-acetamide] | 6.15
9 | CC(C)n1cc(C(=O)c2cncc(NC(=O)c3nccc4occc34)c2)c2cncnc21 [Example 380, Furo[3,2-c]pyridine-4-carboxylic acid [5-(7-isopropyl-7H-pyrrolo[2,3-d]pyrimidine-5-carbonyl)-pyridin-3-yl]-amide] | 6.37
10 | Cc1nonc1C(=O)Nc1cncc(C(=O)c2cn(C(C)C)c3ncncc23)c1 [Example 381, 4-Methyl-furazan-3-carboxylic acid [5-(7-isopropyl-7H-pyrrolo[2,3-d]pyrimidine-5-carbonyl)-pyridin-3-yl]-amide] | 5.56
11 | CC(C)n1cc(C(=O)c2cncc(NC(=O)c3nn(C)c4ccccc34)c2)c2cncnc21 [Example 382, 1-Methyl-1H-indazole-3-carboxylic acid [5-(7-isopropyl-7H-pyrrolo[2,3-d]pyrimidine-5-carbonyl)-pyridin-3-yl]-amide] | 7.34
12 | CC(C)n1cc(C(=O)c2cncc(NC(=O)c3cc4ccccc4[nH]3)c2)c2cncnc21 [Example 383, 1H-Indole-2-carboxylic acid [5-(7-isopropyl-7H-pyrrolo[2,3-d]pyrimidine-5-carbonyl)-pyridin-3-yl]-amide] | 6.89
13 | Cc1nc(C(F)(F)F)c(C(=O)Nc2cncc(C(=O)c3cn(C(C)C)c4ncncc34)c2)s1 [Example 384, 2-Methyl-4-trifluoromethyl-thiazole-5-carboxylic acid [5-(7-isopropyl-7H-pyrrolo[2,3-d]pyrimidine-5-carbonyl)-pyridin-3-yl]-amide] | 5.32
14 | CC(C)n1cc(C(=O)c2cncc(NC(=O)c3ncoc3C3CC3)c2)c2cncnc21 [Example 385, 5-Cyclopropyl-oxazole-4-carboxylic acid [5-(7-isopropyl-7H-pyrrolo[2,3-d]pyrimidine-5-carbonyl)-pyridin-3-yl]-amide] | 7.09
15 | CC(C)n1cc(C(=O)c2cncc(NC(=O)c3cccnn3)c2)c2cncnc21 [Example 386, Pyridazine-3-carboxylic acid [5-(7-isopropyl-7H-pyrrolo[2,3-d]pyrimidine-5-carbonyl)-pyridin-3-yl]-amide] | 5.01
16 | Cc1n[nH]c(C(F)(F)F)c1C(=O)Nc1cncc(C(=O)c2cn(C(C)C)c3ncncc23)c1 [Example 387, 3-Methyl-5-trifluoromethyl-1H-pyrazole-4-carboxylic acid [5-(7-isopropyl-7H-pyrrolo[2,3-d]pyrimidine-5-carbonyl)-pyridin-3-yl]-amide] | 5.16
17 | Cc1ccnc(C(=O)Nc2cncc(C(=O)c3cn(C(C)C)c4ncncc34)c2)c1 [Example 388, 4-Methyl-pyridine-2-carboxylic acid[5-(7-isopropyl-7H-pyrrolo[2,3-d]pyrimidine-5-carbonyl)-pyridin-3-yl]-amide] | 6.78
18 | CC(C)n1cc(C(=O)c2cncc(NC(=O)c3c[nH]nc3C3CCC3)c2)c2cncnc21 [Example 389, 3-Cyclobutyl-1H-pyrazole-4-carboxylic acid [5-(7-isopropyl-7H-pyrrolo[2,3-d]pyrimidine-5-carbonyl)-pyridin-3-yl]-amide] | 7.07
19 | CC(C)n1cc(C(=O)c2cncc(NC(=O)c3cnco3)c2)c2cncnc21 [Example 390, Oxazole-5-carboxylic acid [5-(7-isopropyl-7H-pyrrolo[2,3-d]pyrimidine-5-carbonyl)-pyridin-3-yl]-amide] | 5.01
20 | Cc1c[nH]c(C(=O)Nc2cncc(C(=O)c3cn(C(C)C)c4ncncc34)c2)n1 [Example 391, 4-Methyl-1H-imidazole-2-carboxylic acid [5-(7-isopropyl-7H-pyrrolo[2,3-d]pyrimidine-5-carbonyl)-pyridin-3-yl]-amide] | 6.61
21 | CC(C)n1cc(C(=O)c2cncc(NC(=O)c3cc4cc[nH]c4cn3)c2)c2cncnc21 [Example 392, 1H-Pyrrolo[2,3-c]pyridine-5-carboxylic acid [5-(7-isopropyl-7H-pyrrolo[2,3-d]pyrimidine-5-carbonyl)-pyridin-3-yl]-amide] | 6.87
22 | Cc1cnc(C(=O)Nc2cncc(C(=O)c3cn(C(C)C)c4ncncc34)c2)cn1 [Example 393, 5-Methyl-pyrazine-2-carboxylic acid[5-(7-isopropyl-7H-pyrrolo[2,3-d]pyrimidine-5-carbonyl)-pyridin-3-yl]-amide] | 5.87

Further lines, results first:

Row | pIC50 | SMILES
23 | 5.15 | Cc1nn(C)cc1C(=O)Nc1cncc(C(=O)c2cn(C(C)C)c3ncncc23)c1 [Example 394, 1,3-Dimethyl-1H-pyrazole-4-carboxylic acid [5-(7-isopropyl-7H-pyrrolo[2,3-d]pyrimidine-5-carbonyl)-pyridin-3-yl]-amide]
24 | 5.87 | CC(C)n1cc(C(=O)c2cncc(NC(=O)c3cnc4cn[nH]c4c3)c2)c2cncnc21 [Example 395, 1H-Pyrazolo[4,3-b]pyridine-6-carboxylic acid [5-(7-isopropyl-7H-pyrrolo[2,3-d]pyrimidine-5-carbonyl)-pyridin-3-yl]-amide]
25 | 6.75 | CCc1cc(C(=O)Nc2cncc(C(=O)c3cn(C(C)C)c4ncncc34)c2)no1 [Example 396, 5-Ethyl-isoxazole-3-carboxylic acid[5-(7-isopropyl-7H-pyrrolo[2,3-d]pyrimidine-5-carbonyl)-pyridin-3-yl]-amide]
26 | 5.01 | CC(C)n1cc(C(=O)c2cncc(NC(=O)c3ccnn3C)c2)c2cncnc21 [Example 397, 2-Methyl-2H-pyrazole-3-carboxylic acid [5-(7-isopropyl-7H-pyrrolo[2,3-d]pyrimidine-5-carbonyl)-pyridin-3-yl]-amide]
27 | 6.86 | CC(C)n1cc(C(=O)c2cncc(NC(=O)c3cnc4ccccc4c3)c2)c2cncnc21 [Example 398, Quinoline-3-carboxylic acid [5-(7-isopropyl-7H-pyrrolo[2,3-d]pyrimidine-5-carbonyl)-pyridin-3-yl]-amide]
28 | 6.82 | CC(C)n1cc(C(=O)c2cncc(NC(=O)c3cc4cc(F)cnc4[nH]3)c2)c2cncnc21 [Example 399, 5-Fluoro-1H-pyrrolo[2,3-b]pyridine-2-carboxylic acid [5-(7-isopropyl-7H-pyrrolo[2,3-d]pyrimidine-5-carbonyl)-pyridin-3-yl]-amide]
29 | 6.23 | Cc1cc(C(=O)Nc2cncc(C(=O)c3cn(C(C)C)c4ncncc34)c2)nn1C [Example 400, 1,5-Dimethyl-1H-pyrazole-3-carboxylic acid [5-(7-isopropyl-7H-pyrrolo[2,3-d]pyrimidine-5-carbonyl)-pyridin-3-yl]-amide]
30 | 6.88 | CC(C)n1cc(C(=O)c2cncc(NC(=O)c3coc(C4CC4)n3)c2)c2cncnc21 [Example 401, 2-Cyclopropyl-oxazole-4-carboxylic acid [5-(7-isopropyl-7H-pyrrolo[2,3-d]pyrimidine-5-carbonyl)-pyridin-3-yl]-amide]
31 | 5.01 | CC(C)n1cc(C(=O)c2cncc(NC(=O)c3scnc3C(F)(F)F)c2)c2cncnc21 [Example 402, 4-Trifluoromethyl-thiazole-5-carboxylic acid [5-(7-isopropyl-7H-pyrrolo[2,3-d]pyrimidine-5-carbonyl)-pyridin-3-yl]-amide]
32 | 5.91 | CC(C)n1cc(C(=O)c2cncc(NC(=O)c3ncn4c3CCC4)c2)c2cncnc21 [Example 403, 6,7-Dihydro-5H-pyrrolo[1,2-c]imidazole-1-carboxylic acid [5-(7-isopropyl-7H-pyrrolo[2,3-d]pyrimidine-5-carbonyl)-pyridin-3-yl]-amide]
33 | 6.93 | CC(C)n1cc(C(=O)c2cncc(NC(=O)c3cc4sccc4cn3)c2)c2cncnc21 [Example 404, Thieno[3,2-c]pyridine-6-carboxylic acid [5-(7-isopropyl-7H-pyrrolo[2,3-d]pyrimidine-5-carbonyl)-pyridin-3-yl]-amide]
